Experimental findings from patent US6673812B1, “Preventives/remedies for glaucoma” (Senju Pharmaceutical Co., Ltd., priority 1998, dated 2004) are described below.

The subject of this assay is Japanese white rabbits. Put plainly: Effect on normal intraocular pressure of white rabbits. The assay is classed as in vivo, rabbit. The conditions noted are these: 20 μl eye drop, 0.1% or 0.03%. The source says:
In this experiment, 0.1% eye drop and 0.03% eye drop containing Compound A (each prepared in Example 2 and Example 3), 0.03% eye drop containing Compound B (prepared in Example 4), 0.1% eye drop and 0.03% eye drop containing Compound C (each prepared in Example 5 and Example 6) and 0.03% eye drop containing Compound D (prepared in Example 7) were used.
Japanese white rabbits (body weight about 2 kg) purchased from Japan Laboratory Animals, INC. were used. These animals were bred in a breeding chamber set to temperature 23±3° C., humidity 55±10% and fed on limited amount of 100 g a day of a solid feed (Labo R Stock, Nihon-Nosan Kogyo K.K.). They were allowed free access to tap water. The rabbits were placed in a holding box for 5 hr a day for acclimation from 2 days prior to the test. […] After measurement of the initial value of the intraocular pressure, various eye drops (20 μl) were instilled into one eye, and a base, which was one of various eye drops except the test drug, was instilled into the other eye in the same manner and taken as the control eye.
The intraocular pressure was measured with time at 30, 60, 90, 120, 150 and 180 min after instillation and thereafter at one hour intervals until the intraocular pressure returned to the initial value, and the duration of the effect was examined.

Consider `C[C@@H](N)c1ccc(C(=O)Nc2ccnc3[nH]ccc23)cc1.Cl.Cl.O` [Compound D, (R)-(+)-N-(1H-pyrrolo[2,3-b]pyridin-4-yl)-4-(1-aminoethyl)benzamide 2HCl 1H2O], for which the “character (onset, duration) of intraocular pressure lowering effect” value is “marked and long lasting intraocular pressure lowering effect”.
